Results as given in ChEMBL document CHEMBL5678818, “Discovery of potent SOS1 inhibitors that block RAS activation via disruption of the RAS-SOS1 interaction” (Proc Natl Acad Sci U S A, 2019).

What was measured:
[1] = target: T1, Mitogen-activated protein kinase kinase kinase 5 (Homo sapiens) (UniProt Q99683); assay: Inhibition of ASK1 (unknown origin) assessed as residual activity at 1000 nM by KINOMEscan analysis relative to control
T1 sequence (whole entry): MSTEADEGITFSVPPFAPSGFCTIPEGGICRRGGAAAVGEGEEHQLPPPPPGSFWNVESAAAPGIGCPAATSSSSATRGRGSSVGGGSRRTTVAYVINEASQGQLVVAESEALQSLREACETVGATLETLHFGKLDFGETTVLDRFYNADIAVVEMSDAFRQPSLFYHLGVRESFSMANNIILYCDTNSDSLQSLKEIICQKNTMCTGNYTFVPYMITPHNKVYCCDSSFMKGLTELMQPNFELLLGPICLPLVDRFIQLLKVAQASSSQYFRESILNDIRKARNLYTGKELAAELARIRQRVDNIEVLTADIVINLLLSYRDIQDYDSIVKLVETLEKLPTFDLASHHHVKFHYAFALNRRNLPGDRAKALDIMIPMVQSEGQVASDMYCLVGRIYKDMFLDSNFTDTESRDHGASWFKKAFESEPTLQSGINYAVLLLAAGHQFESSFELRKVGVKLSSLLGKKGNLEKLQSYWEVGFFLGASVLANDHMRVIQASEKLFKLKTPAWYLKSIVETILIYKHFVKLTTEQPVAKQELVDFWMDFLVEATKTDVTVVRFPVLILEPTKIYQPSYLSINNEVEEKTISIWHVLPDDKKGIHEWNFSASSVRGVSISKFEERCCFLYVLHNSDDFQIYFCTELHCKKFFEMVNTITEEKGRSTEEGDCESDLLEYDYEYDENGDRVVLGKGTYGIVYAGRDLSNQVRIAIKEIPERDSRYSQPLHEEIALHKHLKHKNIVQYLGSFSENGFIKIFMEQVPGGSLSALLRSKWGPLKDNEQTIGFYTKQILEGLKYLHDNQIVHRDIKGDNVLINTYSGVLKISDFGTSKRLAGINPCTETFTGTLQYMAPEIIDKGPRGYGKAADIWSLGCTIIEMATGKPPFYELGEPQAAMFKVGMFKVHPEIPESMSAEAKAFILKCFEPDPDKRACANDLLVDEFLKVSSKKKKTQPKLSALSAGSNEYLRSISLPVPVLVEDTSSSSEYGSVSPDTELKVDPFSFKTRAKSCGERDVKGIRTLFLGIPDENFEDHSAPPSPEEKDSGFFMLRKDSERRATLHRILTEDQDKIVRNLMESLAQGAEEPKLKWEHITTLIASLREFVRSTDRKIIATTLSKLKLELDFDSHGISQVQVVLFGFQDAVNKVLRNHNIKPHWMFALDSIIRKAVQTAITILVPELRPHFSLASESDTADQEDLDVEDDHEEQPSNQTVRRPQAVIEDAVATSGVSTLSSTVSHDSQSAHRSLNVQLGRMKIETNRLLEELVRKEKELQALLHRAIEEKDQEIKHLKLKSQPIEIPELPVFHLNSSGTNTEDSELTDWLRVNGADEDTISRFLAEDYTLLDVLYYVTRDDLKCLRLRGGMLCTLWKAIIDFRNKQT

[2] = target: Casein kinase II subunit alpha' (Homo sapiens) (UniProt P19784); assay: Inhibition of CSNK2A2 (unknown origin) assessed as residual activity at 1000 nM by KINOMEscan analysis relative to control
[3] = target: Ribosomal protein S6 kinase alpha-6 (Homo sapiens) (UniProt Q9UK32); assay: Inhibition of C-terminal RSK4 kinetic domain 2 (unknown origin) assessed as residual activity at 1000 nM by KINOMEscan analysis relative to control
[4] = target: BMP-2-inducible protein kinase (Homo sapiens) (UniProt Q9NSY1); assay: Inhibition of BIKE (unknown origin) assessed as residual activity at 1000 nM by KINOMEscan analysis relative to control
[5] = target: T2, Ephrin type-B receptor 6 (Homo sapiens) (UniProt O15197); assay: Inhibition of EPHB6 (unknown origin) assessed as residual activity at 1000 nM by KINOMEscan analysis relative to control
T2 sequence (whole entry): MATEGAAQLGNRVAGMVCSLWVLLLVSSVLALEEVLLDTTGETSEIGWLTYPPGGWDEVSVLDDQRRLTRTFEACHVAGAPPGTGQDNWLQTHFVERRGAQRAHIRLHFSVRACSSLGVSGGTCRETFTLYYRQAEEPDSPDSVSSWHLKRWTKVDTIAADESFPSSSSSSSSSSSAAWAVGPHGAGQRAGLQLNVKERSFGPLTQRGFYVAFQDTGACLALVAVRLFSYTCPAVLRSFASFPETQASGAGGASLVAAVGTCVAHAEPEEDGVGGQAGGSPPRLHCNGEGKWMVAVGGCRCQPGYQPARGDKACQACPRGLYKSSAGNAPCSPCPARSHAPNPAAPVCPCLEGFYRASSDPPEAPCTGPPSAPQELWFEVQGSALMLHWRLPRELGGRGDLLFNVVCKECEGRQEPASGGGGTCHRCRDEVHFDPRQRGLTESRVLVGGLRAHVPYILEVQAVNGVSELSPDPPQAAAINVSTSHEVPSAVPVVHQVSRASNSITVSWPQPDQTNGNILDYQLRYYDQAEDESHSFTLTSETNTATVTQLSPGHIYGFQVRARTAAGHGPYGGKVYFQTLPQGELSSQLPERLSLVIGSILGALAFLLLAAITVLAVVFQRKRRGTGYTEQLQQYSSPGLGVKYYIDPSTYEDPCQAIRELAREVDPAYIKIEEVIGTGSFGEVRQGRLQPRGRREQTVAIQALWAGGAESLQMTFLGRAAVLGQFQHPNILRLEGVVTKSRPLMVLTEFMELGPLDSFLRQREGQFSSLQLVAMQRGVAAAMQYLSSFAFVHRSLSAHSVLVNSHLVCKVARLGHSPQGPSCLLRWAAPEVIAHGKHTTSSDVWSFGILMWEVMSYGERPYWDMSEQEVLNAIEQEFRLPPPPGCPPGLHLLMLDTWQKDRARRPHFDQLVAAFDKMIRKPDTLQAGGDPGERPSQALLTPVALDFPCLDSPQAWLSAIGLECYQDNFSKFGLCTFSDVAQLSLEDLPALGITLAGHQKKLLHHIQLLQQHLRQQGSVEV

Sequence of Ribosomal protein S6 kinase alpha-6 (Homo sapiens) (Q9UK32 whole entry, the tested form may be a part): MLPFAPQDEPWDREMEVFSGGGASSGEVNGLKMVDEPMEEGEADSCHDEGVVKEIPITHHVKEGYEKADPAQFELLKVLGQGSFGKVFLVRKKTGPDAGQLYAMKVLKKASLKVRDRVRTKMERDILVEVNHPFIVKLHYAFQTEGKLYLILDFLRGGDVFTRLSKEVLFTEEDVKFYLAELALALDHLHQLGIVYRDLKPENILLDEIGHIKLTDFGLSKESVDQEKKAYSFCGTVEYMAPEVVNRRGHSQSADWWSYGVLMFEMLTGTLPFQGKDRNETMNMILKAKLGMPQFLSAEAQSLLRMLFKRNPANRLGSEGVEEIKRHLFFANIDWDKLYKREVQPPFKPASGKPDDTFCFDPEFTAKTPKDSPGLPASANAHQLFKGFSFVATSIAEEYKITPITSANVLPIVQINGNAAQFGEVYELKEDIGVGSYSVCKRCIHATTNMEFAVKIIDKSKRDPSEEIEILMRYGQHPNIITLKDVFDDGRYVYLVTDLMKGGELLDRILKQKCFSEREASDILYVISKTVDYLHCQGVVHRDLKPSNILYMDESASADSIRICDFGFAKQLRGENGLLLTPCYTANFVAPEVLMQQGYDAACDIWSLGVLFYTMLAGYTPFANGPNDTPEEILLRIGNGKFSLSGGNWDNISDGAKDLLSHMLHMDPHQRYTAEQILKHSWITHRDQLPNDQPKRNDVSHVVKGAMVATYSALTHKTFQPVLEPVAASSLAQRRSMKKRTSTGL
Sequence of Casein kinase II subunit alpha' (Homo sapiens) (P19784 whole entry, looked up, the tested form may be a part): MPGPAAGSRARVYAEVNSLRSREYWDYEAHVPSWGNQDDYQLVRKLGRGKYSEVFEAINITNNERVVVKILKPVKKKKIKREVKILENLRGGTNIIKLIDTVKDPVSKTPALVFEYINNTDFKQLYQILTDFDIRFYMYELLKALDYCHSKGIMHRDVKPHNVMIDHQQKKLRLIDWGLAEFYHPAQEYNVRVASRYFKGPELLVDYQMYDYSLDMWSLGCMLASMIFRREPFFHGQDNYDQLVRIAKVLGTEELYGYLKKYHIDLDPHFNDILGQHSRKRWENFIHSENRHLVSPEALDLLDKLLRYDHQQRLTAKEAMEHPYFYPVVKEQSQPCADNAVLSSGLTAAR
Sequence of BMP-2-inducible protein kinase (Homo sapiens) (Q9NSY1 whole entry, looked up): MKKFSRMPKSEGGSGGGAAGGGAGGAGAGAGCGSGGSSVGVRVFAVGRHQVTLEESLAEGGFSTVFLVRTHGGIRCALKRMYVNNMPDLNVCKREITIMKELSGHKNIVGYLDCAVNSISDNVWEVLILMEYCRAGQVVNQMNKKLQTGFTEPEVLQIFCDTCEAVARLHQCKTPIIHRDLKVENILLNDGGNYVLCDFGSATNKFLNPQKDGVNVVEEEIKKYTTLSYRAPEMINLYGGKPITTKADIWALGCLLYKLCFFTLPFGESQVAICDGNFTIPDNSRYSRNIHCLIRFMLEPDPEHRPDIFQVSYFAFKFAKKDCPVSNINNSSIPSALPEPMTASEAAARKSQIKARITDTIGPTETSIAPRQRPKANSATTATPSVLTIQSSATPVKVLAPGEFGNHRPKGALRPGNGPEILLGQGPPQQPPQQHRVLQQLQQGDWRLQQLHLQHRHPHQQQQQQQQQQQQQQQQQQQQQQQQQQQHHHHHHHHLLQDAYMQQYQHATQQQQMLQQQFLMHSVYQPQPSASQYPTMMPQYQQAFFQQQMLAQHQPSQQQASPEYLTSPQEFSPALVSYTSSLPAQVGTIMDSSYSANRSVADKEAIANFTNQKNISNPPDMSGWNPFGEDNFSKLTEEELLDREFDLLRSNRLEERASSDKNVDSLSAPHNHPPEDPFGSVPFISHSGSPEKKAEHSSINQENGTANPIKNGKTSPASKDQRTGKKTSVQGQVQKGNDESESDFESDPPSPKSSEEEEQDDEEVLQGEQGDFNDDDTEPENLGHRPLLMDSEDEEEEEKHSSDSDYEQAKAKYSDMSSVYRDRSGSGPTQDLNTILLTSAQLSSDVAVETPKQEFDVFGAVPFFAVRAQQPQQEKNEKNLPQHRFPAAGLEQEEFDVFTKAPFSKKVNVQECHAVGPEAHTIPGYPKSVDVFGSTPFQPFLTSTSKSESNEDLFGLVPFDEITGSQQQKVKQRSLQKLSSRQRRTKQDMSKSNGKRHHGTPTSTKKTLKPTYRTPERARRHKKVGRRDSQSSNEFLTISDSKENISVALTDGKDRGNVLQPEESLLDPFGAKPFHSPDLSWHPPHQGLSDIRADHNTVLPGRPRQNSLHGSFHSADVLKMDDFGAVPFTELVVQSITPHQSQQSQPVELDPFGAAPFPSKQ

| SMILES | Activity [1] [%] | Activity [2] [%] | Activity [3] [%] | Activity [4] [%] | Activity [5] [%] |
| --- | --- | --- | --- | --- | --- |
| COc1cc2nc(C)nc(N[C@H](C)c3cccc(-c4cn[nH]c4)c3)c2cc1OC | 100 | 100 | 53 | 71 | 100 |
| COc1cc2ncnc(N[C@H](C)c3cccc4ccccc34)c2cc1OC | 76 | 90 | 95 | 100 | 73 |
